# Experimental data as given in patent publication US10772827B2, “Composition for treating apoplexy through nasal administration” (INDUSTRY-UNIVERSITY COOPERATION FOUNDATION HANYANG …, priority 2015, dated 2020).
# Where no end group is shown, it is not given here.
# T1: Fas (Mus musculus, UniProt P25446)
# T1 construct: Neuro2a cells were cultured in an oxygen glucose deprivation (OGD) medium for 24 hour under hypoxic conditions to induce Fas expression; endogenous in cells; host or cells: Neuro2a (mouse neuroblastoma, ATCC), hypoxia/OGD-induced
# T1 sequence (P25446 22-327): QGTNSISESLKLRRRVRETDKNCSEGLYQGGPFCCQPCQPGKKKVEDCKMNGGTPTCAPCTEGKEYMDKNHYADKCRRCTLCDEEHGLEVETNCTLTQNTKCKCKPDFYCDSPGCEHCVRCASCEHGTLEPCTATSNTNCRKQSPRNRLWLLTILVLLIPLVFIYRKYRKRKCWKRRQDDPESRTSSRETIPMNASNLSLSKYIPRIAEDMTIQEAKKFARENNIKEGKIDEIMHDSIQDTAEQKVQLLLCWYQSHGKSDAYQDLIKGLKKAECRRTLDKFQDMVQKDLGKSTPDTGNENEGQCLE
# T2: Fas on hypoxic mouse neuroblastoma Neuro2a cells (mouse, UniProt P25446 22-327)
# T2 construct: whole, on cells; also called Fas receptor; Fas-expressing hypoxic cells
# T2 sequence (looked up): T1 sequence (P25446 22-327)
# B1: scrambled peptide (Scr-FTP) (peptide)
# peptide: YCNSTVCY
# modifications: cysteine pairing not given here; also: Alexa488 label in binding assays, site not given here
# notes: also called scrambled-FTP; Scr-A488
# Experiments:
# [1] = rat, in vivo
# Protocol: Intranasal administration of peptides was performed using a pressurized olfactory delivery (POD) device (Impel Neuropharma). Briefly, rats were kept in an isoflurane chamber containing 5% isoflurane for 3 minutes. After the animals were deeply anesthetized, the rats were placed in a supine position for drug injection. A POD tip (Impel Neuropharma) was carefully inserted into a nostril, and then a prefilled 25 μl catheter tube was slowly inserted appropriately 2 cm into the nostril. Thereafter, a peptide solution (PBS) (15 μl of PBS and 500 nM peptide) was slowly injected thereinto. A total of 700 μg of the FTP peptide was intranasally injected 12 hours after MCAO. After intranasal administration, the rats were maintained in the supine position for 5 minutes before they kept back to their designated cage.
# A total of 500 μg of FTP was conjugated with Alexa-488 according to the manufacturer's guidelines (Molecular probes, Life Technologies). The Alexa^488 conjugated short peptide was intranasally injected with a final volume of 25 μl into each nostril using a POD device 12 hours after MCAO. After a predetermined period of time, the animals were sacrificed and tissues were excised therefrom. The tissues were washed with cold PBS and surface meninges were removed to avoid auto-fluorescence.
# [2] = molecular target: T1, Fas; experiment: FTP binding to Fas-expressing hypoxic Neuro2a cells (flow cytometry, confocal microscopy); conditions: for binding to Fas-expressing hypoxic cells: hypoxic Neuro2a cells (OGD 24 h)
# Protocol: (§1) Mouse neuroblastoma (Neuro2a, N2a) cells were obtained from ATCC and cultured in Dulbecco's Modified Eagle's Medium (DMEM) containing 10% fetal bovine serum (FBS), penicillin (100 IU/ml), and streptomycin (100 μg/ml). To duplicate an ischemia/reperfusion environment in vitro, the Neuro2a cells were cultured in a 6-well plate and maintained under a hypoxic condition (94% N2, 5% CO2, and 1% O2) in an oxygen glucose deprivation (OGD) medium (Life Technologies) for 24 hours. Subsequently, the cells were re-oxygenated in DMEM supplemented with 10% FBS (5% CO2, 20% O2, 37° C.) for 24 hours.
# To identify co-localization of a FTP and a Fas receptor, Neuro2a cells were seeded on a cover slip and maintained under a hypoxic condition in an OGD medium for 24 hours. After incubating for 24 hours, the cells were treated with PBS containing 1% BSA and 0.05% Tween 20 and blocked at 37° C. for 2 hours, followed by staining with an anti-Fas antibody (Abcam) and an Alexa647-conjugated FTP at 4° C. for 2 hours. After incubating for 2 hours, the cells were washed three times with PBS containing 0.05% Tween 20, and stained with a secondary antibody (Abcam) at 4° C. for 2 hours under a dark condition. Nuclei of the cells were counterstained with Hoechst 33342 and fixed with an aqueous mounting solution (Abcam). Fluorescence signals in the cells were obtained using a TSP-SP5 confocal microscope (Leika, Germany).
# [3] = tested on: MCAO rats; experiment: H&E histology of the brain of MCAO rats; assay type: in vivo, rat; conditions: FTP-inoculated group, day 1 to day 5 after reperfusion, FIG. 4F
# From the text: (§2) Briefly, animals were anesthetized with 5% isoflurane. […] Thereafter, the CCA was completely occluded using a clip.
# Paraffin-embedded brain sections were de-paraffinized, rehydrated and then subjected to H&E staining according to standard protocols. The H&E stained sections were covered with cover slips and roughly analyzed using an optical microscope.
# [4] = tested on: cleaved caspase-8 and caspase-3; experiment: Western blotting of cleaved caspase-8 and caspase-3 in hypoxic Neuro2a cells; assay type: cell-based, mouse
# Protocol: as §1
# Neuro2a cells were lysed using a RIPA lysis buffer in the presence of […] phenylmethylsulfonyl fluoride (PMSF) as a protease inhibitor. A total of 50 μg of protein was loaded in a 12% SDS-PAGE gel and transferred onto a nitrocellulose transfer membrane (Whatman). Blots were blocked with 5% skim milk in TBST at room temperature for 2 hours and incubated at 4° C. with primary antibodies (Abcam). After a predetermined period of time, the blots were washed with TBST and incubated for 2 hours with secondary polyclonal antibodies coupled with HRP. After washing the blots three times with TBST, the blots were developed using an ECL western blotting substrate (Promega).
# [5] = tested on: MCAO rats; experiment: TTC staining and measurement of infarct volume in MCAO rats; assay type: in vivo, rat; conditions: 15 mmol I.N. 12 hours after reperfusion
# Protocol: as §2
# After a predetermined period of treatment, the brain was immediately removed. The expected area of damage in the brain was sliced into 3 slices (2 mm thick) including a brain matrix and then incubated in 2% 2,3,5-triphenyltetrazolium chloride (TTC, Sigma) at 37° C. for 10 minutes. The brain slices were then fixed in 4% paraformaldehyde and kept at 4° C. for 24 hours until imaging and photographing. The infarct volume was measured using Image J developed by the U.S. National Institute of Health (NIH) and calculated as commonly known.
# [6] = molecular target: T1, Fas; experiment: Competition assay of a Fas antibody and a FTP on hypoxic Neuro2a cells; assay type: binding; conditions: FIG. 1C
# Protocol: FIG. 1C illustrates the results of a competition assay of a Fas antibody and a FTP, wherein the representative histograms show binding of a Fas antibody to hypoxic cells after treatment with a FTP; data is expressed as mean±SD of three replicated experiments; **P<0.01, ***P<0.001; Normoxia represents cells maintained under normal culture conditions, and Hypoxia represents cells cultured in an OGD medium for 24 hours, followed by re-oxygenation in a serum-containing DMEM medium for 24 hours; and FTP: Fas targeting peptide, Scr-FTP: scrambled peptide.
# [7] = tested on: MCAO rats; experiment: Kaplan-Meier survival of MCAO rats; assay type: in vivo, rat; conditions: for animals survived: intranasal delivery; for rats that died over time: of the 18 rats per group, day 1 until day 5 after reperfusion, FIG. 4H
# Protocol: as §2
# The survival rate of each group of animals was evaluated using a previously described method^[3].
# [8] = tested on: MCAO rats; experiment: Neurological evaluation (deficit grade 0-4) of MCAO rats; assay type: in vivo, rat
# Protocol: as §2
# The neurological deficits of each group of rats with or without peptide treatment were evaluated using a commonly known method^[2]. […] Next, the animals were placed on absorbent pads and tails thereof were pulled to examine their grips power. […] The rats were placed in a sufficiently wide space and allowed to move freely. Grade 3 was given for the case in which rats moved in a circle towards the paralyzed side when tails thereof were pulled. Grade 4 was given for the case in which rats spontaneously moved in a circle under a free environment.
# [9] = tested on: MCAO rats; experiment: TUNEL analysis of apoptosis in brain sections of MCAO rats; assay type: in vivo, rat; conditions: intranasal FTP, FIG. 4G
# Protocol: as §2
# A extent of apoptosis in de-paraffinized and rehydrated brain sections was analyzed through TUNEL analysis using an In Situ Cell Death Detection Kit (Roche, Germany) according to the manufacturer's instructions.
# [10] = tested on: hypoxia-induced Neuro2a cells; experiment: Inhibition of in vitro Fas-mediated apoptosis (PE Annexin V / 7-AAD flow cytometry); assay type: cell-based, mouse
# Protocol: Mouse neuroblastoma (Neuro2a, N2a) cells were obtained from ATCC and cultured in Dulbecco's Modified Eagle's Medium (DMEM) containing 10% fetal bovine serum (FBS), penicillin (100 IU/ml), and streptomycin (100 μg/ml). To duplicate an ischemia/reperfusion environment in vitro, the Neuro2a cells were cultured in a 6-well plate and maintained under a hypoxic condition (94% N2, 5% CO2, and 1% O2) in an oxygen glucose deprivation (OGD) medium (Life Technologies) for 24 hours. Subsequently, the cells were re-oxygenated in DMEM supplemented with 10% FBS (5% CO2, 20% O2, 37° C.) for 24 hours. To examine an inhibitory effect of a FTP, hypoxia-induced Neuro2a cells were treated with 1,000 μM of a FTP. After incubating for 24 hours, the cells were stained using a PE Annexin V apoptosis detection kit (BD Pharmingen™) according to the manufacturer's instructions.
# [11] = molecular target: T2, Fas on hypoxic mouse neuroblastoma …; experiment: flow cytometry, Alexa488-labeled peptide on hypoxic Neuro2a cells
# [12] = fluorescence-labeled peptide, FIG. 1B
# [13] = hypoxic Neuro2a cells, 1,000 μM FTP, FIG. 2B
molecule,measurement,setting,value
"FTP-A^488: FTP conjugated with Alexa-488 for bio-distribution (YCDEHFCY; cysteine pairing not given here; also: conjugated with Alexa-488, position not given here)",fluorescence signal in other organs,[1],no signal was found
same,fluorescence signal in the lungs,[1],slight fluorescence signal
same,localization of labeled peptide in the brain,[1],localization of labeled peptides occurred
same,retention of labeled peptide in the brain,[1],maintained in the brains of MCAO-treated rats
"Scr-A^488: scrambled peptide labeled with Alexa^488 (YCNSTVCY; cysteine pairing not given here; also: labeled with Alexa-488, position not given here) [reference compound]","fluorescence exposure in the liver and kidneys, Scr-A^488 group versus FTP-A^488 group",[1],much more
same,fluorescence signal in other organs,[1],no signal was found
same,fluorescence signal in the lungs,[1],slight fluorescence signal
same,localization of labeled peptide in the brain,[1],strong localization
same,retention of labeled peptide in the brain,[1],not maintained
YCDEHFCY [FTP],binding to Fas-expressing hypoxic cells,[2]; [12],only bound to the Fas-expressing hypoxic cells
same,binding to normal cells,"[2]; fluorescence-labeled peptide, normal (normoxic) Neuro2a cells, FIG. 1B",die not bind to normal cells
same,"engagement to Fas-expressing cells, confocal microscopic images","[2]; hypoxic Neuro2a cells, FIG. 2A",strongly engaged to the Fas-expressing cells
same,interstitial edema and pyknotic nuclei,[3],started to reduce on day 1 after reperfusion and were alleviated on day 5 thereafter
same,decrease of cleaved caspase-3,[4]; FIG. 2C,40%
same,decrease of cleaved caspase-8,[4]; FIG. 2C,~50%
same,expression of activated cleaved caspase-8 and activated caspase-3 according to concentration,"[4]; no dramatic change at full-length enzyme level, FIG. 3",decreased in a dose-dependent manner
same,size of the infarcted area compared to Mock (PBS)- or Scr-FTP-treatment,[5]; as early as day 1 after MCAO,significantly reduced the size of the infarcted area
same,infarct volume,[5]; day 1,26%
same,infarct volume,[5]; day 2,29%
same,infarct volume,[5]; day 3,18%
same,infarct volume,[5]; day 5,7%
same,recovery from the infarct,[5]; day 5 after reperfusion,almost completely recovered
same,competitive assay between FTP and α-Fas antibody,[6],bound to different regions of a Fas molecule
same,animals survived,[7]; first of three values printed for 1 to 5 days after reperfusion,90%
same,animals survived,[7]; second of three values printed for 1 to 5 days after reperfusion,80%
same,animals survived,[7]; third of three values printed for 1 to 5 days after reperfusion,80%
same,rats that died over time,[7],2 rats
same,neurological deficits score compared to the saline-treated group,[8]; FIG. 4I,improved
same,"neurological functions, average grade","[8]; grade 0-4, first of four values between day 1 and day 5 after reperfusion",3.3
same,"neurological functions, average grade","[8]; grade 0-4, fourth of four values between day 1 and day 5 after reperfusion",1.3
same,"neurological functions, average grade","[8]; grade 0-4, second of four values between day 1 and day 5 after reperfusion",2.3
same,"neurological functions, average grade","[8]; grade 0-4, third of four values between day 1 and day 5 after reperfusion",2.3
same,number of apoptotic cells (TUNEL positive cells),[9]; day 1 after reperfusion,26%
same,number of apoptotic cells (TUNEL positive cells),[9]; day 5 after reperfusion,9%
same,decrease of annexin V positive cells,[10]; [13],~50%
same,decrease of annexin V/7-ADD positive cells,[10]; [13],~50%
same,decrease in 7-AAD positive cells,"[10]; hypoxic Neuro2a cells, after FTP treatment",any significant decrease was not observed
"YCNSTVCY [ScrFTP, scrambled peptide used as a control peptide, reference compound]",binding to Fas-expressing hypoxic cells,[2]; [12],did not bind to the hypoxic cells
same,decrease of cleaved caspase-8,[4]; FIG. 2C,did not decrease cleaved caspase 8
same,rats that died over time,[7],11 rats
same,progressive effect on behavior after MCAO,[8]; between day 1 and day 5,worsened
B1,binding result,[11],no binding
